From PubChem BioAssay (NCI)
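In this assay, cells in 96-well plates receive the compound at five concentrations for 48 hours. Endpoints are linearly interpolated between the surrounding concentrations. TGI: total growth inhibition.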

How the values were obtained:
Test in all cases: DTP human tumour cell line panel, 48 h
DLD-1 colon = system: DLD-1 colon
DMS 114 small cell lung = system: DMS 114 small cell lung
HOP-18 NSCLC = system: HOP-18 NSCLC
KM20L2 colon = system: KM20L2 colon
LXFL 529 NSCLC = system: LXFL 529 NSCLC
M19-MEL melanoma = system: M19-MEL melanoma
SNB-78 CNS = system: SNB-78 CNS
XF 498 CNS = system: XF 498 CNS
RXF-631 renal = system: RXF-631 renal

Compound | TGI (DLD-1 colon) [µM] | TGI (DMS 114 small cell lung) [µM] | TGI (HOP-18 NSCLC) [µM] | TGI (KM20L2 colon) [µM] | TGI (LXFL 529 NSCLC) [µM] | TGI (M19-MEL melanoma) [µM] | TGI (SNB-78 CNS) [µM] | TGI (XF 498 CNS) [µM] | TGI (RXF-631 renal) [µM]
O=c1[nH]c(=O)n(C2CC(O)C(CO)O2)cc1C(F)(C(F)(F)F)C(F)(F)F (stereo not drawn) | > 100 | > 100 | > 100 | > 100 | > 100 | > 100 | > 100 | > 100 | –
CN/C=C(\C(=O)c1ccc(OC)c(OC)c1)c1ccc(OC)cc1 | 31.7 | 46.8 | 20.9 | – | 30.2 | 34.3 | – | 33.2 | 32.5
COc1cc(CC2c3cc(OC)c(OC)cc3CCN2C)ccc1O (stereo not drawn) | > 100 | – | > 100 | > 100 | > 100 | – | > 100 | > 100 | –
COc1ccc(N2C(=O)C3c4[nH]c5ccccc5c4C4CC(C)(C)CC(C)(C)C4C3C2=O)cc1 (stereo not drawn) | > 100 | 97.7 | 36.5 | > 100 | 27.7 | 33.7 | 55.3 | 36.8 | –
COc1ccc2c(=O)cc(-c3ccc(OC)c(OC)c3OC)oc2c1 | > 100 | > 100 | – | 77.3 | > 100 | > 100 | – | > 100 | > 100
CC(=O)OCC1OC(OC2C(COC(C)=O)OC(Sc3ccccc3C)C(OC(C)=O)C2OC(C)=O)C(OC(C)=O)C(OC(C)=O)C1OC(C)=O (stereo not drawn) | > 100 | > 100 | > 100 | > 100 | > 100 | > 100 | > 100 | – | –
COc1ccc(C2ON(c3ccccc3)CC=C2C)cc1 (stereo not drawn) | > 100 | – | – | > 100 | > 100 | > 100 | > 100 | > 100 | > 100
NS(=O)(=O)c1ccc(Nc2c3ccccc3nc3c(C(=O)N4CCN(CCO)CC4)cccc23)cc1 | – | > 100 | > 100 | > 100 | > 100 | > 100 | > 100 | > 100 | –
CC(c1ccc2c(c1)CCC1C2CC2OC23CC=CC(=O)[C@]13C)C1C[C@]2(C)O[C@]2(C)[C@H](O)O1 (stereo partly drawn) | – | 4.97 | – | > 100 | > 100 | > 100 | – | > 100 | –
c1cc2nnsc2s1 | > 100 | – | > 100 | > 100 | > 100 | > 100 | > 100 | > 100 | –
O=C1Cc2nc(CO)c(CO)c(CO)c2CO1 | > 100 | > 100 | > 100 | > 100 | > 100 | > 100 | > 100 | – | –
COc1ccc(C(=O)c2c3cc(OC)c(OC)c(OC)c3cc[n+]2C)cc1 | > 100 | 75.7 | 80.6 | > 100 | > 100 | > 100 | > 100 | 33.3 | > 100
CC(=O)OCCOCNC(=S)N/N=C/c1cc([N+](=O)[O-])ccc1O | > 100 | > 100 | > 100 | > 100 | > 100 | > 100 | > 100 | > 100 | > 100
CCOc1cn(C2OC(CO)C(O)C2O)c(=O)[nH]c1=O (stereo not drawn) | > 100 | > 100 | > 100 | > 100 | > 100 | > 100 | > 100 | – | –
COC(=O)[C@@]1(C)C(=O)CC[C@@H]1C=O | > 100 | > 100 | – | > 100 | > 100 | > 100 | > 100 | > 100 | –
CCOC(=O)C1=C(C)NC2=C(C(=O)N(c3ccccc3)C2c2ccccc2)C1c1ccccc1 (stereo not drawn) | 34.5 | 32.4 | 37.7 | – | 30.3 | 32.3 | 45.3 | 37.5 | 32.9
CC(=O)Nc1ccc(-c2nnc(SCC(=O)Nc3cccc(Cl)c3)o2)cc1 | 28.3 | 6.07 | 25.5 | 31.4 | 24.8 | > 100 | > 100 | – | –
